Assay results as given in US7045343B2, “Sterilization indicator test packs” (3M Innovative Properties Company, priority 1998, dated 2006).

Legend:
[1] = tested on: Bacillus stearothermophilus spores; test: Spore outgrowth (color change) of indicators after prevacuum steam sterilization; type: cell-based; conditions: 4-pulse prevacuum steam 121° C.
Method: (§1) The indicators prepared for the Examples were dual rapid readout indicators that provided both a rapid, enzyme-based efficacy test and a confirmatory spore outgrowth test. Spores coated on the carrier strip 16 served as the source of active enzyme whose activity was measured by the rapid enzyme test. These same spores were then incubated in the spore outgrowth portion of the test.
(§2) Bacillus stearothermophilus, commercially available as ATCC 7953 from American Type Culture Collection, Rockville, Md., was grown overnight (16 hours) at 58° C. in tryptic soy broth. This culture was used to inoculate the surface of agar plates consisting of 8 g/l nutrient broth, 4 g/l yeast extract, 0.1 g/l manganese chloride and 20 g/l agar at pH 7.2. Plates were incubated at 58° C. for 72 hours. Spores were scraped from the plates and suspended in sterile distilled water. The spores were separated from the vegetative debris by centrifuging the suspension at 7000 rpm and 4° C. for 20 minutes. The supernatant was poured off and the spores were resuspended in sterile distilled water. The cleaning procedure was repeated several times. After the final wash, the spores were suspended in sterile distilled water, at a concentration of approximately 1×10^8 spores per milliliter.
(§3) The spores were then treated with the chemicals identified in Tables 1–5. All chemicals tested were obtained from commercial sources. The spores were centrifuged at 6000 rpm for 10 minutes. The supernatant and coating chemical mixtures were heated at 60–80° C. for several minutes and vortexed to get the material into solution. The spores were then mixed into the sterilant-resistant chemical solution. The sterilant-resistant chemical solution was applied to 5×25 mm, 591 A paper strips (Schleicher & Schuell, Inc., Keene, N.H.) by pipetting 10–15 microliters to each strip for a final population of about 1×10^6 spores per strip. The strips were dried 16 hours at 37° C.
(§4) The treated spore strips were placed on the bottom of the outer container 12 of the indicator 10 and a barrier was inserted between the spore strip 16 and the inner container 18, which contained enzyme substrate. A […] ( 11/16 inch) disc of polypropylene blown microfiber material, with a weight of 200 g/m^2, commercially available as “THINSULATE™ 200-B brand Thermal Insulation” from 3M Company, St. Paul, Minn., was used as the barrier. The inner container 18 contained 0.67 ml nutrient medium, consisting of 17 g of a bacteriological peptone and a 0.17 g/l of L-alanine, as well as 0.1 g 4-methylumbelliferyl-alpha-D-glucoside, commercially available from Sigma Chemical Company, St. Louis, Mo., dissolved in 200 microliters of N,N-dimethylformamide, and 0.03 g bromocresol purple pH indicator dye, per liter of water. The pH of the enzyme substrate and nutrient medium solution was adjusted to 7.6 with 0.1N sodium hydroxide.
(§5) Sterilization indicators were made as described above with each of the chemicals and concentrations described in Table 1. Control indicators were made using untreated spores. The indicators were placed in metal instrument trays and exposed at 121° C. in a Getinge Steam Sterilizer (Getinge International, Inc., 1100 Towbin Ave., Lakewood, N.J.) using a 4-pulse prevacuum cycle at 121° C. with a vacuum level of 0.075–0.085 bar and a steam pulse to 1.00 bar for each pulse. Indicators were exposed in the sterilizer for between 7 and 13 minutes. This cycle is depicted in the time-pressure diagram in FIG. 5. After exposure the inner containers containing the enzyme substrate and nutrient medium were crushed and the indicators were incubated at 60° C. The indicators were examined for fluorescence using a 3M™ ATTEST™ Model 190 Rapid Autoreader, commercially available from 3M Company, St. Paul, Minn. Additionally, spore growth, as indicated by a color change from purple to yellow, was determined visually after 168 hours of incubation at 60° C. […]

[2] = tested on: enzyme associated with Bacillus stearothermophilus spores; test: Rapid enzyme fluorescence readout of dual rapid readout indicators after prevacuum steam sterilization; type: biochemical; conditions: 4-pulse prevacuum steam 121° C.
Method: as §1, §2, §3, §4, §5

[3] = Example 2, 5 mg/ml coating, 7–13 min
[4] = Example 2, 10 mg/ml coating, 7–13 min
[5] = Example 2, 20 mg/ml coating, 7–13 min
[6] = Example 2, 40 mg/ml coating, 7–13 min
[7] = Example 2, 80 mg/ml coating, 7–13 min
[8] = Example 5, 50 mg/ml coating, 7–13 min
[9] = Example 4, 50 mg/ml coating, 7–18 min
[10] = Example 4, 100 mg/ml coating, 7–18 min

In the case of `OCC(O)COCC(O)COCC(O)COCC(O)COCC(O)COCC(O)CO` (stereo not drawn) [Hexaglycerol], the “NO. GROWTH POSITIVE 168 HR” value [1, 3] is reported as 11, the “NO. GROWTH POSITIVE 168 HR” value [1, 4] is reported as 20 and the “NO. GROWTH POSITIVE 168 HR” value [1, 5] is reported as 18. The “NO. GROWTH POSITIVE 168 HR” value [1, 6] was 26, the “NO. GROWTH POSITIVE 168 HR” value [1, 7] was 24 and the “accuracy of sterilization indicators compared to indicators made with untreated spores” value [2] was “did not improve the accuracy”. For the same compound, the “FLUORESCENCE - PERCENT POSITIVE 1 HR” value [2, 3] was 0%, the “FLUORESCENCE - PERCENT POSITIVE 2 HR” value [2, 3] was 0% and the “FLUORESCENCE - PERCENT POSITIVE 3 HR” value [2, 3] was 0%. The “FLUORESCENCE - PERCENT POSITIVE 4 HR” value [2, 3] was 9.1%, the “FLUORESCENCE - PERCENT POSITIVE 5 HR” value [2, 3] was 45.5% and the “FLUORESCENCE - PERCENT POSITIVE 6 HR” value [2, 3] was 63.6%. The “FLUORESCENCE - PERCENT POSITIVE 1 HR” value [2, 4] was 0%, the “FLUORESCENCE - PERCENT POSITIVE 2 HR” value [2, 4] was 0% and the “FLUORESCENCE - PERCENT POSITIVE 3 HR” value [2, 4] was 5.0%. The “FLUORESCENCE - PERCENT POSITIVE 4 HR” value [2, 4] was 15.0%, the “FLUORESCENCE - PERCENT POSITIVE 5 HR” value [2, 4] was 35.0% and the “FLUORESCENCE - PERCENT POSITIVE 6 HR” value [2, 4] was 50.0%. For the same compound, the “FLUORESCENCE - PERCENT POSITIVE 1 HR” value [2, 5] was 0%, the “FLUORESCENCE - PERCENT POSITIVE 2 HR” value [2, 5] was 0% and the “FLUORESCENCE - PERCENT POSITIVE 3 HR” value [2, 5] was 11.1%. The “FLUORESCENCE - PERCENT POSITIVE 4 HR” value [2, 5] was 38.9%, the “FLUORESCENCE - PERCENT POSITIVE 5 HR” value [2, 5] was 50.0% and the “FLUORESCENCE - PERCENT POSITIVE 6 HR” value [2, 5] was 61.1%. For the same compound, the “FLUORESCENCE - PERCENT POSITIVE 1 HR” value [2, 6] was 0%, the “FLUORESCENCE - PERCENT POSITIVE 2 HR” value [2, 6] was 0% and the “FLUORESCENCE - PERCENT POSITIVE 3 HR” value [2, 6] was 26.9%. For the same compound, the “FLUORESCENCE - PERCENT POSITIVE 4 HR” value [2, 6] was 46.2%, the “FLUORESCENCE - PERCENT POSITIVE 5 HR” value [2, 6] was 53.8% and the “FLUORESCENCE - PERCENT POSITIVE 6 HR” value [2, 6] was 61.5%. For the same compound, the “FLUORESCENCE - PERCENT POSITIVE 1 HR” value [2, 7] was 0%, the “FLUORESCENCE - PERCENT POSITIVE 2 HR” value [2, 7] was 0% and the “FLUORESCENCE - PERCENT POSITIVE 3 HR” value [2, 7] was 37.5%. The “FLUORESCENCE - PERCENT POSITIVE 4 HR” value [2, 7] was 58.3%, the “FLUORESCENCE - PERCENT POSITIVE 5 HR” value [2, 7] was 70.8% and the “FLUORESCENCE - PERCENT POSITIVE 6 HR” value [2, 7] was 70.8%.

In the case of POE(15) Glyceryl Monooleate, the “NO. GROWTH POSITIVE 168 HR” value [1, 8] is reported as 1, the “FLUORESCENCE - PERCENT POSITIVE 1 HR” value [2, 8] is reported as 0% and the “FLUORESCENCE - PERCENT POSITIVE 2 HR” value [2, 8] is reported as 0%. For the same compound, the “FLUORESCENCE - PERCENT POSITIVE 3 HR” value [2, 8] was 0% and the “FLUORESCENCE - PERCENT POSITIVE 4 HR” value [2, 8] was 0%.

For Hexaglyceryl Monolaurate, the “NO. GROWTH POSITIVE 168 HR” value [1, 9] was 7, the “NO. GROWTH POSITIVE 168 HR” value [1, 10] was 20 and the “accuracy of sterilization indicators compared to indicators made with untreated spores” value [2] was “improved”. For the same compound, the “FLUORESCENCE - PERCENT POSITIVE 1 HR” value [2, 9] was 0%, the “FLUORESCENCE - PERCENT POSITIVE 2 HR” value [2, 9] was 28.6% and the “FLUORESCENCE - PERCENT POSITIVE 3 HR” value [2, 9] was 57.1%. For the same compound, the “FLUORESCENCE - PERCENT POSITIVE 4 HR” value [2, 9] was 71.4%, the “FLUORESCENCE - PERCENT POSITIVE 1 HR” value [2, 10] was 90.0% and the “FLUORESCENCE - PERCENT POSITIVE 2 HR” value [2, 10] was 100.0%. For the same compound, the “FLUORESCENCE - PERCENT POSITIVE 3 HR” value [2, 10] was 100.0% and the “FLUORESCENCE - PERCENT POSITIVE 4 HR” value [2, 10] was 100.0%.

For POE(60) Sorbitol Tetrastearate, the “NO. GROWTH POSITIVE 168 HR” value [1, 8] was 5, the “FLUORESCENCE - PERCENT POSITIVE 1 HR” value [2, 8] was 0% and the “FLUORESCENCE - PERCENT POSITIVE 2 HR” value [2, 8] was 0%. The “FLUORESCENCE - PERCENT POSITIVE 3 HR” value [2, 8] was 0% and the “FLUORESCENCE - PERCENT POSITIVE 4 HR” value [2, 8] was 0%.
